Measured values taken from ChEMBL document CHEMBL1133264, “Development of peptidyl alpha-keto-beta-aldehydes as new inhibitors of cathepsin L--comparisons of potency and selectivity profiles with cathepsin B” (Bioorg Med Chem Lett, 2000).

Assays:
Cathepsin B = Cathepsin B (Bos taurus, UniProt P07688); experiment: Ability to block cathepsin B-catalyzed hydrolysis of the fluorogenic substrate Z-Arg-Arg-NHMec
Procathepsin L [1] = molecular target: T1, Procathepsin L (Homo sapiens, UniProt P07711); experiment: Ability to block cathepsin L-catalyzed hydrolysis of the fluorogenic substrate Z-Phe-Arg-NHMec
T1 sequence (P07711 whole entry): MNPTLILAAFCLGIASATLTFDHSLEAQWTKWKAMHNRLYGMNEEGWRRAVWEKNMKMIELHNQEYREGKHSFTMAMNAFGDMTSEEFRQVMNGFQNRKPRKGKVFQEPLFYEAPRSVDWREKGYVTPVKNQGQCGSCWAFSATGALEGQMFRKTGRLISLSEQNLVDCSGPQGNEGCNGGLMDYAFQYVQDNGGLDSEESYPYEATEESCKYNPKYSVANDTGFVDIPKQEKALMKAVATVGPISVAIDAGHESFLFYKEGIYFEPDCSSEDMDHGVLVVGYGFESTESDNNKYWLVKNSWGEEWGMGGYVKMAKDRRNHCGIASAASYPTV

Procathepsin L [2] = molecular target: T1, Procathepsin L; experiment: Ability to block cathepsin L-catalyzed hydrolysis of the fluorogenic substrate Z-Phe-Arg-NHMec, at 100 uM conc.; no inhibition

Compound	Ki (Cathepsin B) [nM]	Ki (Procathepsin L [1]) [nM]	Ki (Procathepsin L [2])
CC(=O)N[C@@H](CC(C)C)C(=O)N[C@@H](CC(C)C)C(=O)N[C@@H](CCCN=C(N)N)C(=O)C=O	1250	970	
CCCCOc1ccc(C[C@H](NC(=O)[C@H](Cc2ccccc2)NC(=O)OCc2ccccc2)C(=O)C=O)cc1	214	0.6	
CC(=O)N[C@@H](CCCN=C(N)N)C(=O)N[C@@H](CCCN=C(N)N)C(=O)C=O	640		Not Active
N=C(N)NCCC[C@H](NC(=O)[C@H](Cc1ccccc1)C(=O)OCc1ccccc1)C(=O)C=O	40	90	
